Laboratory results reported in PMC7012012, “Bioassay-guided isolation, identification of compounds from Origanum rotundifolium and investigation of their antiproliferative and antioxidant activities” (Pharmaceutical Biology, 2017).
Where “and” joins values, the source holds several entries; their conditions need not be identical. Identical values can stand only once.

Legend:
[1] = DPPH free radical scavenging assay; settings: 30 min, absorbance 517 nm
Experimental: The free radical scavenging activities of extracts and standards were evaluated by 2,2-diphenyl-1-picrylhydrazil (DPPH^•) (Blois [1958]). To a different concentration of 3.0 mL of extract (3.0–20 μg/mL) in ethanol, DPPH^• solution (1.0 mL, 0.26 mM) were added. After that it is stirred and kept at Rt for 30 min, The absorbance of the mixture was executed at 517 nm in a spectrophotometer. The activity was calculated by the below equation. DPPH• scavenging effect %=Ac-As/Ac×100
In which, Ac and As are the control and sample absorbance, respectively.

[2] = ABTS radical cation scavenging assay; settings: 30 min, absorbance 734 nm; unit printed only in abstract
Experimental: 2,2″-Azino-bis (3-ethylbenzthiazoline-6-sulfonic acid) (ABTS) cation radical scavenging assay based on the decreasing ABTS radical cation, a blue/green chromophore with absorption at […], in comparison to that of BHA, BHT and Trolox. This method was executed as in the literature (Re et al. [1999]). Treatment of ABTS (2.0 mM) in phosphate buffer (0.1 M, pH 7.4) with potassium persulfate (K2S2O8) (2.45 mM) gave the ABTS^•+, kept at dark at Rt for 4 h. Initially, dilution of ABTS^•+ was performed with sodium phosphate buffer (pH 7.4, 0.1 M) to obtain absorbance 0.750 ± 0.025 at 734 nm. After all, ABTS^•+ solution (1.0 mL) was added to each extract solution in ethanol (3.0 mL) at different concentration (2.5–20 μg/mL). After 30 min, the inhibition was calculated for each concentration relative to a blank absorbance. The scavenging ability of ABTS^•+ was calculated by given equation:
ABTS^•+scavenging activity (%)=[(Ac – As)/Ac]*100 in which, Ac is the initial concentration of ABTS^•+ and As is the absorbance of the remaining concentration of ABTS^•+ in the samples.

[3] = Ferric ions (Fe3+) reducing antioxidant power assay (FRAP); settings: 10 μg/mL
Experimental: Different concentrations of samples (5–40 μg/mL) in 1 mL of deionized water were mixed with sodium phosphate buffer (1.25 mL, 0.2 M, pH 6.6) and potassium ferricyanide [K3Fe(CN)6] (1.25 mL, 1%). After the incubation of the mixture at 50 °C for 20 min, trichloroacetic acid (1.25 mL, 10%) and FeCl3 (0.25 mL, 0.1%) were added to the reaction medium. The reaction mixture was vortexed thoroughly and absorbance measurement at 700 nm was executed in a spectrophotometer.

[4] = test system: HeLa (human cervix carcinoma) cell lines; experiment: BrdU cell proliferation ELISA, HeLa; assay type: cell-based; settings: for Tumour specificity HeLa: HeLa relative to Vero; for IC50: BrdU ELISA
Experimental: (§1) Anticancer potential of isolated compounds was investigated on C6, HT29, HeLa and Vero cell lines. These cells were sustained with Dulbecco’s modified eagle’s medium, complemented with foetal bovine serum and PenStep solution (ATCC, American Type Culture Collection). The old medium was aspirated out of the plate while cells had reached a confluence of 80% then cells were removed from the flasks using trypsin-EDTA (4 mL) and centrifuged. Afterward, cell pellet was suspended with DMEM and was counted to gain a final concentration as 5 × 10^4 cells/mL, inoculated into wells (100 μL cells/well).
(§2) The antiproliferative activity of compounds against various cell lines (C6, HeLa and Vero cells) was tested by cell proliferation assay using BrdU Cell Proliferation ELISA kit. A cell suspension containing nearly 5 × 10^3 cells in 100 μL was conveyed into the well cell plates (96-well cell). The treatments of cells with compounds in DMSO and 5-Florouracil (5 FU) in DMSO separately at concentration 5–100 μg/mL were carried out. The last volume of the wells was adapted to 200 μL by DMEM and mixture was incubated at 37 °C with 5% CO2 for overnight (Okten et al. [2013]).
(§3) The half inhibitory concentration of the isolated compounds and standards was calculated by XLfit5 software (IDBS) and explicated in μM at 95% confidence levels (Table 1). The proliferation results were recorded as the per cent inhibition of the compounds and control substances. The following formula was used for the calculation of inhibition % Inhibition = [Asample– Acontrol/Acontrol]×100
(§4) where Asample is the absorbance of the compounds and Acontrol is the absorbance of the DMSO.

[5] = test system: HT29 (human colon carcinoma) cell lines; experiment: BrdU cell proliferation ELISA, HT29; assay type: cell-based; settings: for Tumour specificity HT29: HT29 relative to Vero
Experimental: as §1, §2, §3, §4

[6] = test system: C6 (rat brain tumour) cell lines; experiment: BrdU cell proliferation ELISA, C6; assay type: cell-based; settings: for IC50: C6, BrdU ELISA; for Tumour specificity C6: C6 relative to Vero; for Antiproliferative activity on C6 (in words): C6, 5-100 μg/mL
Experimental: as §1, §2, §3, §4

[7] = test system: Vero (African green monkey kidney epithelium) cells; experiment: BrdU cell proliferation ELISA, Vero; assay type: cell-based; settings: for IC50: BrdU ELISA; for Antiproliferative activity on Vero (in words): 5-100 μg/mL
Experimental: as §1, §2, §3, §4

[8] = Homo sapiens, HT-29, HT29, BrdU ELISA

| Molecule | IC50 [1] [µM] | ABTS radical cation scavenging IC50 [2] | IC50 ([4]; Homo sapiens, HeLa) [µM] | IC50 [5, 8] [µM] | IC50 ([6]; Rattus norvegicus) [µM] | Reducing power (absorbance at 700 nm) [3] | Tumour specificity HeLa [4] | IC50 ([4]; HeLa) [µM] | IC50 ([5]; HT29, BrdU ELISA) [µM] | Tumour specificity HT29 [5] | IC50 [6] [µM] | IC50 ([6]; listed as cisplatin) [µM] | Tumour specificity C6 [6] | IC50 [7] [µM] | Antiproliferative activity on HeLa (in words) ([4]; HeLa, 5-100 μg/mL) | Antiproliferative activity on HT29 (in words) ([5]; HT29, 5-100 μg/mL) | Antiproliferative activity on C6 (in words) [6] | Antiproliferative activity on Vero (in words) [7] | IC50 ([7]; Chlorocebus sabaeus) [µM] |
| --- | --- | --- | --- | --- | --- | --- | --- | --- | --- | --- | --- | --- | --- | --- | --- | --- | --- | --- | --- |
| COc1ccc(O)c(C(C)(C)C)c1 [BHA, butylated hydroxyanisole, reference compound] | 12.9 | 7.6 µg/mL |  |  |  | 1.12 |  |  |  |  |  |  |  |  |  |  |  |  |  |
| N.N.[Cl][Pt][Cl] [Cisplatin, reference compound] |  |  |  |  |  |  | 0.92 | 44.2 | 48.6 | 0.84 | 61.5 | 61.5 | 0.66 | 40.8 |  |  |  |  |  |
| caprolactam [Compound 4] | 329 | 61.5 µg/mL |  |  |  | 0.08 |  |  |  |  |  |  |  |  |  |  | Noticeable effect has not been detected | did not reveal the remarkable activity |  |
| vitexin [Compound 3] | 31.4 | 3.6 µg/mL and 3.7 µg/mL |  |  |  | 0.27 | 1.31 | 35.6 | 32.5 | 1.43 | 41.6 |  | 1.12 | 46.7 |  |  |  | effective at high concentrations |  |

The next lines start with results.

| IC50 [1] [µM] | ABTS radical cation scavenging IC50 [2] | IC50 ([4]; Homo sapiens, HeLa) [µM] | IC50 [5, 8] [µM] | IC50 ([6]; Rattus norvegicus) [µM] | Molecule | Reducing power (absorbance at 700 nm) [3] | Tumour specificity HeLa [4] | IC50 ([4]; HeLa) [µM] | IC50 ([5]; HT29, BrdU ELISA) [µM] | Tumour specificity HT29 [5] | IC50 [6] [µM] | IC50 ([6]; listed as cisplatin) [µM] | Tumour specificity C6 [6] | IC50 [7] [µM] | Antiproliferative activity on HeLa (in words) ([4]; HeLa, 5-100 μg/mL) | Antiproliferative activity on HT29 (in words) ([5]; HT29, 5-100 μg/mL) | Antiproliferative activity on C6 (in words) [6] | Antiproliferative activity on Vero (in words) [7] | IC50 ([7]; Chlorocebus sabaeus) [µM] |
| --- | --- | --- | --- | --- | --- | --- | --- | --- | --- | --- | --- | --- | --- | --- | --- | --- | --- | --- | --- |
| 196 | 5.0 µg/mL |  |  |  | Cc1cc(C(C)(C)C)c(O)c(C(C)(C)C)c1 [BHT, Butylated hydroxytoluene, reference compound] | 0.81 |  |  |  |  |  |  |  |  |  |  |  |  |  |
| 173 | 8.9 µg/mL |  |  |  | O=c1cc(-c2ccc(O)cc2)oc2cc(O)cc(O)c12 [Compound 1, Apigenin] | 0.14 |  |  |  |  |  |  |  |  | did not reveal the noticeable activity | has not a noteworthy effect | Noticeable effect has not been detected | did not reveal the remarkable activity |  |
| 47.2 | 14.2 µg/mL | 233 | 262 | 252 | O=C(/C=C/c1ccc(O)c(O)c1)O[C@H](Cc1ccc(O)c(O)c1)C(=O)O [Compound 5, rosmarinic acid] | 0.60 | 1.19 |  | 262 | 1.07 | 251 |  | 1.11 |  |  |  |  | good effect | 279 |
| 22.4 | 4.6 µg/mL | 140 | 136 | 169 | O=C(OC(Cc1ccc(O)c(O)c1)C(=O)O)c1cc(-c2ccc(O)c(O)c2)c2cc(O)c(O)cc2c1 (centres unmarked) [Compound 6, globoidnan A] | 1.25 |  | 140 | 136 |  | 169 |  |  |  |  |  |  | did not reveal the remarkable activity |  |
|  | 13.8 µg/mL |  |  |  | Cc1c(C)c2c(c(C)c1O)CCC(C)(C(=O)O)O2 (centres unmarked) [Trolox, reference compound] | 0.61 |  |  |  |  |  |  |  |  |  |  |  |  |  |
